According to patent US10988481B2, “Potent and selective mu opioid receptor modulators” (VIRGINIA COMMONWEALTH UNIVERSITY, priority 2016, dated 2021):
Like-named read-outs stand apart in the source and are kept apart here.

Tests used:
[1] = target: KOR (Homo sapiens (Human), UniProt P41145); test: Competition binding assay at KOR ([3H]DPN, CHO cell membranes)
Method: (§1) Chinese hamster ovary (CHO) cells expressing MOR, KOR and DOR were cultured for use in this assay. The culture media used for MOR CHO cells contained 500 mL DMEM/F12 media, 10% FBS, 1% penicillin/streptomycin, and 2.75 mL G418. The DOR and KOR CHO cells were cultured in the same media except that 5% FBS was used instead of 10%. The cells are allowed to grow until they are 80-95% confluent after which they are split. The cells are continuously cultured and split until there were sufficient cells for the studies.
(§2) Once the cells reached confluence, cells were harvested, centrifuged at 1000×g for 10 minutes, and suspended in membrane buffer (50 mM Tris, 3 mM MgCl2, and 1 mM EGTA, pH 7.4). The cells were then homogenized, centrifuged at 50000×g for 10 minutes, and re-homogenized in membrane buffer. A Bradford assay was conducted to determine membrane protein concentrations, and membrane protein preps (3 μg/aliquot) were stored at −80° C.
(§3) The competition binding assay was conducted to determine the affinity and selectivity of the synthesized compounds to MOR over KOR and DOR. The Kd and Bmax values for [^3H]NLX at MOR and [^3H]DPN at KOR had been determined previously. […] [^3H]NLX was used to label MOR whilst [^3H]DPN was used to label both DOR and KOR. The potency of the new compounds in displacing the specific binding of the radioligand was determined by linear regression analysis of Hill plots. […] The IC50 values were determined and converted to Ki values using the Cheng—Prusoff equation (Rosenblum, A. et al. Exp Clin Psychopharmacol. 2008, 16 (5), 405-416).

[2] = target: T1, DOR (Homo sapiens (Human), UniProt P41143); test: Competition binding assay at DOR ([3H]DPN, CHO cell membranes)
Method: as §1, §2, §3

[3] = target: MOR (Mus musculus, UniProt P42866); assay type: biochemical; details: relative to 3 μM DAMGO at MOR
Method: The [^35S]GTPγS functional assay was used to determine whether the synthesized compounds are agonists. The agonist's activity of the compounds was measured relative to 3 μM DAMGO at MOR. In this assay, upon receptor activation due to agonist binding, [^35S]GTPγS binds to the Gα subunit. Thus, [^35S]GTPγS replaces endogenous GTP and since the γ-thiophosphate bond is resistant to hydrolysis by GTPase, [^35S]GTPγS labelled Gα subunits accumulate and can be quantified by measuring the amount of incorporated [^35S].
The Bradford assay was then conducted to determine the concentration of the membrane protein using BSA as the standard. Suitable dilutions of membrane protein, [^35S]GTPγS), cold GTPγS, DAMGO and GDP were made in TME. The desired amount of the protein per tube was 10 μg. All the test-tubes were vortexed and incubated in the shaking water bath at 30° C. for 90 minutes, after which bound radioligand was filtered and rinsed three times with cold Tris buffer. The filtered bound radioligand was then transferred into scintillation tubes with 4 mL of scintillation fluid and radioligand was quantified. However, counting was delayed for 9 hrs to allow the radioactivity to enter the solution. Percent DAMGO stimulation was defined as (net stimulated binding of test compound/net stimulated binding of DAMGO)×100%. The normalized data were subjected to nonlinear regression analysis to determine EC50 and Emax values using Prism 6.0 software (GraphPad Software, San Diego, Calif.). The assay was performed in triplicate and repeated at least three times.

[4] = test system: Swiss Webster mice; test: Warm-water tail immersion assay, blockage of the antinociceptive effect of morphine; details: for Blockage of morphine-mediated antinociception: 10 mg/kg s.c. 5 min before morphine 10 mg/kg, tested 20 min after morphine
Method: (§4) FIG. 1A-D. Warm-water tail immersion assay in mice (n=5) at 56±0.1° C. All tested compounds were administered subcutaneously (s.c.). […] Compounds (10 mg/kg) were injected at Time 0. Twenty minutes after injection, tail flick was assessed with hot water. […] Tested compounds (10 mg/kg) were injected at Time 0. Five minutes later, morphine (10 mg/kg) was administered. Twenty minutes after morphine injection, tail flick was tested using hot water.
(§5) For the in vivo studies, male Swiss Webster mice were used for both the warm-water immersion and opioid withdrawal assays. The mice weighed 23-35 g and were housed five to a cage in animal care quarters maintained at 22° C. on a 12 hour light-dark cycle with food and water available ad libitum. The mice were transferred to the test room and the tests were then conducted 18 hours later. Protocols and procedures were approved by the Institutional Animal Care and Use Committee at Virginia Commonwealth University Medical Center and complied with the recommendations of the International Association for the Study of Pain.
(§6) Each indole analogue of naltrexamine was tested for its ability to produce antinociception and/or to antagonize the antinociceptive effects of morphine in mice using the warm-water tail immersion assay described by Coderre and Rollman. The a water bath temperature was maintained at 56±0.1° C. The baseline latency (control) was determined before injecting the compounds into the mice. […] To test for agonism, the tail immersion was conducted 20 min (time that morphine effect starts to peak) after injecting the indole analogues of 6α/β-naltrexamine. To prevent tissue damage, a 10 s maximum cut off time was imposed. Antinociceptive response was calculated as the percentage maximum possible effect (% MPE), where % MPE=[(test−control)/(10−control)]×100. In the antagonism study, the 6α/β-naltrexamine derivatives were given 5 min before morphine. The tail immersion test was conducted 20 min after giving morphine. % MPE was calculated for each mouse using at least five mice per drug. AD50 values were calculated using the least-squares linear regression analysis followed by calculation of 95% confidence interval by Bliss method. A higher % MPE indicates a stronger antinociception effect by the ligand.

[5] = test system: morphine-pelleted mice; test: Opioid withdrawal assay in chronic morphine-exposed (pelleted) mice
Method: as §5
A 75 mg morphine pellet was implanted in to the base of the neck of the mice and the mice were then given time to recover in their home cages before the test was conducted. The mice were then allowed for 30 min habituation to an open-topped, square, clear Plexiglas observation chamber (26×26×26 cm^3) with lines partitioning the bottom into quadrants before they were given antagonist. All drugs and test compounds were administered subcutaneously (s.c.). […] Withdrawal commenced within 3 min after antagonist administration. Escape jumps, paw tremors and wet dog shakes were quantified by counting their occurrences over 20 min for each mouse using five mice per drug. The data is given as the mean±SEM. One-way ANOVA followed by the post hoc Dunnett test were performed to assess significance using the Prism 6.0 software.

[6] = test system: Swiss Webster mice; test: Warm-water tail immersion assay, antinociceptive (agonist) effect; assay type: in vivo; details: 10 mg/kg s.c., tail flick 20 min after injection, 56 °C
Method: as §4, §5
as §6, with “In the antagonism study, the 6α/β-naltrexamine derivatives were given 5 min before morphine.” left out, “A higher % MPE indicates a stronger antinociception effect by the ligand.” left out

[7] = target: MOR (Homo sapiens (Human), UniProt P35372); details: background statement; cited from earlier work
[8] = target: T1, DOR; details: read-out: Ki (nM) ± SEM δ; values obtained from previous experiments; cited from earlier work
[9] = [3H]DPN, KOR CHO membranes, read-out: Ki (nM) ± SEM κ
[10] = [3H]DPN, DOR CHO membranes, read-out: Ki (nM) ± SEM δ
[11] = 50 mg/kg s.c., morphine-pelleted mice

T1 sequence (P41143 whole entry, looked up): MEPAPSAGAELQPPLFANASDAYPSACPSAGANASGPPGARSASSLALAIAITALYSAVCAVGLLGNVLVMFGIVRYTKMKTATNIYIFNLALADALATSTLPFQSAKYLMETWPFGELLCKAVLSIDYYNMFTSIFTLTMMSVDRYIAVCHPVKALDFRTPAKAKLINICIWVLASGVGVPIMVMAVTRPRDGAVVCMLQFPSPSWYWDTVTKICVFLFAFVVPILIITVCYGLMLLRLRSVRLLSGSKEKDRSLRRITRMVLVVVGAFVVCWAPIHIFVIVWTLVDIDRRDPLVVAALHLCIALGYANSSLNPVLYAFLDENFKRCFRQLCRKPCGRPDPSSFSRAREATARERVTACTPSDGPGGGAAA
Chain of MOR (Mus musculus, UniProt P42866) (P42866 whole entry, looked up): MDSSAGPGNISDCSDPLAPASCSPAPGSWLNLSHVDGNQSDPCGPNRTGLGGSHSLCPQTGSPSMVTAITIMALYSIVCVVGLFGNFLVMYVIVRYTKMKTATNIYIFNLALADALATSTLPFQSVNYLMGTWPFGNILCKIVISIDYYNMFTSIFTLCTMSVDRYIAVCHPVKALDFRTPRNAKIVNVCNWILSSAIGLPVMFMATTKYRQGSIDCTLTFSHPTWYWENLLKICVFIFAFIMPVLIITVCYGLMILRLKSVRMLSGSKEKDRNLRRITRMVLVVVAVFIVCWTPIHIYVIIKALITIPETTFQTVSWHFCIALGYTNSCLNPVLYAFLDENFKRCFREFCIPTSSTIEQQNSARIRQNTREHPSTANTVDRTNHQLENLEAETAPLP
Chain of MOR (Homo sapiens (Human), UniProt P35372) (P35372 whole entry): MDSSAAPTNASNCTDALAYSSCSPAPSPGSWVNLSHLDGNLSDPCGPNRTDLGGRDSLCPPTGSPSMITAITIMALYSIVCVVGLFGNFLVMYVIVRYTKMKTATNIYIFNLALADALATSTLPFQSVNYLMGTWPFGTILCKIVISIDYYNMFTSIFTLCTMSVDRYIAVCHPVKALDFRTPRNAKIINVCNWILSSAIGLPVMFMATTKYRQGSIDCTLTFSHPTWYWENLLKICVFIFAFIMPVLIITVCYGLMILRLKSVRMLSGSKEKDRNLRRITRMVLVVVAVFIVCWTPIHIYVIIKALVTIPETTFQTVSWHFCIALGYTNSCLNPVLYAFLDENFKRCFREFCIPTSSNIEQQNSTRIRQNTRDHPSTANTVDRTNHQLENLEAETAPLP

SMILES	Ki [1, 9]	Ki [2, 10]	Emax(% DAMGO) ± SEM [3]	Blockage of morphine-mediated antinociception [4]	Ki [1]	Ki [2]	Antinociceptive effect (agonism) in warm-water immersion assay [6]	other results
Cl.O=C(N[C@H]1CC[C@@]2(O)[C@H]3Cc4ccc(O)c5c4[C@@]2(CCN3CC2CC2)[C@H]1O5)c1cccc2cc[nH]c12 [Compound 6, 17-Cyclopropylmethyl-3,14β-dihydroxy-4,5α-epoxy-6α-(indole-7-carboxamido)morphinan]	1.69 ± 0.35 nM	10.9 ± 2.94 nM	20.95 ± 4.43 % DAMGO	effectively blocked morphine-mediated antinociception	–	–	–	AD50 (95% CL), opioid antagonist effect ([4]; dose-dependent study against morphine, s.c.): 2.39 (0.46-12.47) mg/kg; Escape jumps compared with naltrexone 1 mg/kg ([5]; 1 mg/kg s.c., morphine-pelleted mice): significantly less escape jumps than naltrexone; Diarrhea ([5]; 1 mg/kg, morphine pelleted mice (not in placebo pelleted mice)): produced diarrhea; Paw tremors compared with naltrexone 1 mg/kg [5, 11]: significantly less paw tremors than naltrexone; Wet-dog shakes compared with naltrexone 1 mg/kg [5, 11]: significantly less wet-dog shakes than naltrexone; Escape jumps compared with naltrexone 1 mg/kg ([5]; 50 mg/kg s.c., morphine-pelleted mice, not significantly different): more escape jumps; Withdrawal symptoms in placebo-pelleted mice ([5]; 50 mg/kg s.c., placebo-pelleted mice): did not induce any significant withdrawal symptoms
Cl.O=C(N[C@@H]1CC[C@@]2(O)[C@H]3Cc4ccc(O)c5c4[C@@]2(CCN3CC2CC2)[C@H]1O5)c1cc2ccccc2[nH]1 [Compound 10, 17-Cyclopropylmethyl-3,14β-dihydroxy-4,5α-epoxy-6β-(indole-2-carboxamido)morphinan]	–	–	–	–	0.178 ± 0.002 nM	1.54 ± 0.473 nM	opioid agonist	–
Cl.O=C(N[C@@H]1CC[C@@]2(O)[C@H]3Cc4ccc(O)c5c4[C@@]2(CCN3CC2CC2)[C@H]1O5)c1cccc2cc[nH]c12 [Compound 15, 17-Cyclopropylmethyl-3,14β-dihydroxy-4,5α-epoxy-6β-(indole-7-carboxamido)morphinan]	–	–	32.0 ± 4.6 % DAMGO	effectively blocked morphine-mediated antinociception	0.52 ± 0.094 nM	30.4 ± 9.49 nM	partial opioid agonists	–
Cl.O=C(Cc1c[nH]c2ccccc12)N[C@@H]1CC[C@@]2(O)[C@H]3Cc4ccc(O)c5c4[C@@]2(CCN3CC2CC2)[C@H]1O5 [Compound 16, 17-Cyclopropylmethyl-3,14β-dihydroxy-4,5α-epoxy-6β-[2-(indol-3-yl)acetamido)morphinan]	0.947 ± 0.114 nM	37 ± 1.21 nM	50.17 ± 7.75 % DAMGO	–	–	–	partial opioid agonists	–
COc1cccc2c1[C@]13CCN(CC4CC4)[C@H](C2)[C@]1(OC)CCC(=O)C3 [Cyprodime]	–	–	–	–	–	–	–	Selectivity DOR/MOR (MOR over DOR) [7]: ≈ 39 fold; Selectivity KOR/MOR [7]: ≈ 10
Cl.O=C(N[C@H]1CC[C@@]2(O)[C@H]3Cc4ccc(O)c5c4[C@@]2(CCN3CC2CC2)[C@H]1O5)c1cc2ccccc2cn1 [NAQ, 17-Cyclopropylmethyl-3,14β-Dihydroxy-4,5α-Epoxy-6α-(Isoquinoline-3-Carboxamido)morphinan]	–	–	–	–	–	–	–	Ki [8]: 162 ± 15 nM
